Data reported in patent US4448729A, “Leucotriene antagonists” (American Home Products Corporation, priority 1982, dated 1984).
Structures can show the parent of a compound that is named as a salt. Where two headings read alike, the source gives them in different places.

Tests used:
[1] = system: anaphylactic tissue response; test: anaphylactic tissue response / leucotriene activity of nitro substituted compounds; assay type: cell-based
[2] = system: sensitized guinea pig trachea; test: Schultz-Dale reaction, sensitized guinea pig trachea (tracheal spirals), ovalbumin challenge; assay type: cell-based; settings: Cavia porcellus; for inhibition at 10 µM: 10^-5 M; for inhibition at 1 µM: 10^-6 M
Method: The antiallergy activity of the compounds of this invention was established by the Schultz-Dale reaction employing sensitized guinea pig trachea by the following procedure:
(§1) Guinea pigs weighing from about 275 to 325 g. are sensitized to ovalbumin. Three to four weeks later, tracheae are removed under CO2 anesthesia. Excess tissue is removed and each trachea is spirally cut and suspended under 6 g. tension in a tissue bath (37° C.) containing modified Tyrode's solution (pH 7.4) oxygenated with a 95 percent O2 -5 percent CO2 gas mixture. The Tyrodes composition (mmol) is: NaCl, 139.2; KCl, 2.7; MgSO4.7H2 O, 0.49; NaHCO3, 11.9; NaH2 PO4.H2 O, 0.4; CaCl2.2H2 O, 1.8 and glucose, 5.5. Tracheae are allowed to equilibrate for 90 minutes before exposure to agonists or drugs.
A response to histamine is elicited at two bath concentrations (1×10^-6 M and 1×10^-4 M). The lower concentration primes the tissue and is allowed a 5 minute contact period. The higher concentration (10 minute exposure) produces a maximal response for the tissue. In each case, the bath fluid is replaced and the tissue is washed two times with fresh Tyrode solution. Compounds tested are introduced into the bath to produce a 10^-4 M concentration twenty minutes after the second histamine treatment (subsequent testing at 10^-5 and 10^-6 M bath concentrations are employed in dose-response analyses). Ovalbumin (8 μg/ml) is introduced into the bath ten minutes later.
The contracture curve following antigen challenge is compared with the maximal histamine response at 10 minute time intervals up to 90 minutes and the responses are expressed as percentage inhibition. The area under the curve is calculated for each time period. […] The EC50 is calculated from the area under the curve values at 90 minutes to define the effective concentration of test compound which produces a 50 percent reduction in area under the curve compared to control tissues.

[3] = target: T1, (Cavia porcellus, UniProt Q2NNR5); test: Schultz-Dale reaction, guinea pig ileal tissue, inhibition of leucotriene D4; assay type: cell-based; settings: Schultz-Dale reaction employing guinea pig ileal tissue; read-out: pA2 as inhibitor of leucotriene D4 (converted)
T1 construct: employing guinea pig ileal tissue; from tissue; host or cells: guinea pig ileum
T1 sequence (Q2NNR5 1-340): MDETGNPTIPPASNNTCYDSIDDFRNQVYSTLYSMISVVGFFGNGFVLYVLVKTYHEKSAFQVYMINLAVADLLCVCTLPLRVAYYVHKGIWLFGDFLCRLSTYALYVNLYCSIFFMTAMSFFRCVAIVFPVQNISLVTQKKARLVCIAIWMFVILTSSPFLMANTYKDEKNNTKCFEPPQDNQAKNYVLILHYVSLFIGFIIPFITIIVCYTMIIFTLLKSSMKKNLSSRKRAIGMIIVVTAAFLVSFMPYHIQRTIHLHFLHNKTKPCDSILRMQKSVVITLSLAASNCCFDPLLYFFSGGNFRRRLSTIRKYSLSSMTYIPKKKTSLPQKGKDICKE

[4] = system: guinea pig lung parenchyma strips; test: Schultz-Dale reaction, guinea pig lung parenchyma strips, ovalbumin challenge; assay type: cell-based; settings: Cavia porcellus, 1 h, at 60 minutes, read-out: Parenchymal Strips % Inhibition at 60 minutes; for inhibition at 100 µM: 10^-4 M
Method: as §1
Following the same basic procedure, guinea pig lung parenchyma strips (25×3×3 mm) dissected along the distal edges of two different lobes are suspended under 1 g. tension in the tissue bath. Equilibration in the Tyrode solution is conducted for 45 minutes with complete solution changes at 15 minute intervals. Maximal contraction induced with histamine (50 μM) primes the tissue. Five minutes later, the bath fluid is exchanged two times and the tissues are allowed to equilibrate 15 minutes longer. The test compound is then introduced into the bath to give a 10^-4 M solution. Five minutes later the ovalbumin challenge (8 μg/ml) is given. The data is collected at ten minute intervals up to 60 minutes and analysed as with the guinea pig trachea technique.

SRS-A = settings: J.Med.Chem. 20 371 (1977); cited from earlier work
[5] = 1.5 h, 10^-4 M, at 90 minutes, read-out: Tracheal Spirals % Inhibition at 90 minutes
[6] = 1.5 h, 50 percent reduction in area under the curve at 90 minutes, read-out: Tracheal Spirals EC50

| SMILES | inhibition at 100 µM [2, 5] | inhibition at 10 µM ([2]; 1.5 h, at 90 minutes) | inhibition at 1 µM ([2]; 1.5 h, at 90 minutes) | EC50 [2, 6] | other results |
| --- | --- | --- | --- | --- | --- |
| CCCc1c(OCC(O)CNc2cccc([N+](=O)[O-])c2C#N)ccc(C(C)=O)c1O (centres unmarked) [2-[[3-(4-acetyl-3-hydroxy-2-propylphenoxy)-2-hydroxypropyl]amino]-6-nitrobenzonitrile] |  |  |  |  | effect on anaphylactic tissue response [1]: potentiator of the anaphylactic tissue response |
| CCCc1c(OCC(O)COc2cccc(N)c2C#N)ccc(C(C)=O)c1O (centres unmarked) [Example 1, 2-[3-(4-Acetyl-3-hydroxy-2-propylphenoxy)-2-hydroxypropoxy]-6-aminobenzonitrile] | 64.2% | 45.7% | 20.6% | 20 µM |  |
| CCCc1c(OCC(O)COc2cccc(NC(=O)C(=O)OCC)c2C#N)ccc(C(C)=O)c1O (centres unmarked) [Example 2, [[3-[3-(4-Acetyl-3-hydroxy-2-propylphenoxy)-2-hydroxypropoxy]-2-cyanophenyl]amino]oxoacetic acid ethyl ester] | 73% | 63% | 18.8% | 8.7 µM | Kb [3]: 0.000398 µM; inhibition at 100 µM [4]: 65.5%; inhibition at 10 µM ([4]; 10^-5 M): 2.09% |
| CCCc1c(OCC(O)COc2cccc(NC(=O)C(=O)O)c2C#N)ccc(C(C)=O)c1O (centres unmarked) [Example 3, [[3-[-(4-Acetyl-3-hydroxy-2-propylphenoxy)-2-hydroxypropoxy]-2-cyanophenyl]amino]oxoacetic acid sodium salt] | 62.1% | 21.5% | 12.8% | 53 µM | inhibition at 100 µM [4]: 22.9% |
| CCCc1c(OCC(O)COc2cccc(N)c2)ccc(C(C)=O)c1O (centres unmarked) [Example 4, 1-[2-Hydroxy-3-propyl-4-[2-hydroxy-3-(3-aminophenoxy)propoxy]phenyl]ethanone] | 76.2% | 9.07% | 4.98% | 36 µM |  |
| CCCc1c(OCC(O)COc2cccc(NC(=O)C(=O)OCC)c2)ccc(C(C)=O)c1O (centres unmarked) [Example 5, [[3-[3-(4-Acetyl-3-hydroxy-2-propylphenoxy)-2-hydroxypropoxy]phenyl]amino]oxoacetic acid ethyl ester] | 53% | 22.8% | 8.57% | 97 µM |  |
| CCCc1c(OCC(O)CNc2cccc(N)c2C#N)ccc(C(C)=O)c1O (centres unmarked) [Example 6, 2-Amino-6-[[3-(4-acetyl-3-hydroxy-2-propylphenoxy)-2-hydroxypropyl]amino]benzonitrile] | 38.8% |  |  |  |  |
| CCCc1c(OCC(O)CNc2cccc(NC(=O)C(=O)OCC)c2C#N)ccc(C(C)=O)c1O (centres unmarked) [Example 7, [[[3-[3-(4-acetyl-3-hydroxy-2-propylphenoxy)-2-hydroxypropyl]amino]-2-cyanophenyl]amino]oxoacetic acid ethyl ester] | 63.8% | 39.3% | 2.64% | 30 µM |  |
| CCCc1c(OCC(O)CNc2cccc(NC(=O)C(=O)O)c2C#N)ccc(C(C)=O)c1O (centres unmarked) [Example 8, [[[3-[3-(4-Acetyl-3-hydroxy-2-propylphenoxy)-2-hydroxypropyl]amino]-2-cyanophenyl]amino]oxoacetic acid sodium salt] | 63.5% | 37.5% | 28.4% | 25 µM |  |
| CCCc1c(OCC(O)CNc2cccc(N)c2C(N)=O)ccc(C(C)=O)c1O (centres unmarked) [Example 9, 2-[3-(4-Acetyl-3-hydroxy-2-propylphenoxy)-2-hydroxypropyl]amino-6-aminobenzamide] | 40.7% |  |  |  |  |
| CC(=O)c1ccc(OCC(O)COc2cccc([N+](=O)[O-])c2)cc1O (centres unmarked) [Example 10, 1-[2-Hydroxy-4-[2-hydroxy-3-(3-nitrophenoxy)propoxy]phenyl]ethanone] |  |  |  |  | inhibition at 100 µM ([2]; 10^-4 M concentration, sensitized guinea pig trachea, read-out: percent inhibition in the Schultz-Dale reaction): 62%; EC50 ([2]; sensitized guinea pig trachea, read-out: EC50 in the Schultz-Dale reaction): 76 µM |
| CCCc1c(OCC(O)COc2ccc3c(=O)cc(C(=O)[O-])oc3c2CCC)ccc(C(C)=O)c1O.[Na+] (centres unmarked) [FPL 55712, sodium 7-[3-(4-acetyl-3-hydroxy-2-propylphenoxy)-2-hydroxypropoxy]-4-oxo-8-propyl-4H-1-benzopyran-2-carboxylate] |  |  |  |  | antagonism of SRS-A (SRS-A): specific antagonist of SRS-A |
